Earlier results on five compounds are cited in US20200354441A1, “TREATMENT OF DISORDERS” (Apellis Pharmaceuticals, Inc., priority 2017, published 2020).

For one data set, the system named is complement activation. Conditions: relative to compstatin amidated at the C-terminus; published data (WO2004/026328, WO2007044668, Mallik 2005, Katragadda 2006).
The test system of data set [1] is complement activation (alternative pathway). Particulars: alternative pathway-mediated erythrocyte lysis assay (WO2004/026328).

“H-GICV(6fW)QD(6fW)GAHRCTN-COOH (6-fluoro-Trp, C-terminal acid) [+G/V4(6fW)/W7(6fW)H9A+N-OH]”: in the data set on complement activation, the Activity over compstatin was 126× more.

For “Ac-ICVWQDWGAHRCdT-COOH [Ac-V4W/H9A/T13dT -OH]”, the Activity over compstatin with complement activation was 55× more.

On to `CC[C@H](C)[C@H](N)C(=O)N[C@H]1CSSC[C@@H](C(=O)N[C@H](C(N)=O)[C@@H](C)O)NC(=O)[C@H](CCCN=C(N)N)NC(=O)[C@H](Cc2cnc[nH]2)NC(=O)[C@H](Cc2cnc[nH]2)NC(=O)CNC(=O)[C@H](Cc2c[nH]c3ccccc23)NC(=O)[C@H](CC(=O)O)NC(=O)[C@H](CCC(N)=O)NC(=O)[C@H](C(C)C)NC(=O)[C@H](C(C)C)NC1=O` [Compstatin, H-ICVVQDWGHHRCT-CONH2], for which the IC50 in data set [1] is 12 µM.

Take Ac-ICVVQDWGHHRCT-CONH2 [Ac-compstatin]: the Activity over compstatin in the data set with complement activation is reported as 3× more.

Turning to “Ac-ICVWQD(5fW)GAHRCT-CONH2 [Ac-V4W/W7(5fW)/H9A]”, the Activity over compstatin with complement activation is given as 121× more.
